Measurements published in US20160075682A1, “INHIBITORS OF NICOTINAMIDE PHOSPHORIBOSYLTRANSFERASE, COMPOSITIONS, PRODUCTS AND USES THEREOF” (UNIVERSITÀ DEGLI STUDI DEL PIEMONTE ORIENTALE "AMEDEO …, priority 2013, published 2016).

Key:
SH-SY5Y, HeLa = experiment: MTT cell proliferation assay and trypan blue count (cell viability); assay type: cell-based; conditions: cells treated for 48 and 72 hours; read-out: IC50 values (inhibition of cellular proliferation, MTT assay and trypan blue assay)
Summary of the method: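 SH-SY5Y and HeLa cells, 8×10^5 per well, exposed 48 and 72 h with final DMSO ≤0.5%. Viability by MTT (250 μg/ml, 1 h, A570 after isopropanol/HCl) and by trypan blue count. IC50 from dose-response curves for some compounds.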

[1] = system: spinal cord injury in male adult CD1 mice; experiment: Spinal cord injury by clip compression, motor function; assay type: in vivo; conditions: i.p. one and 6 hours post injury
Experimental: Male adult CD1 mice (25-30 g, Harlan Nossan, Milan, Italy) were used for all studies. Mice were housed in individual cages (5 for each group) and maintained under 12:12 light-dark cycle at 21±1° C. and 50±5% humidity.
Spinal cord injury (SCI) was induced in male adult mice by the clip compression technique (Genovese et al. J. Pharmacol. Exp. Ther. 2008a, 325, 100-14). SHAM-operated animals were taken as control. Drugs were given i.p. one and 6 hours post injury. Animal care was in compliance with Italian regulations on protection of animals used for experimental and other scientific purpose (D.M. 116192) and with the EEC regulations (O.J. of E.C. L 358/1 Dec. 18, 1986). Animals were sacrificed at post-injury (at least five animals/experimental group were analysed).
The motor function of mice subjected to SCI was assessed once a day for 7 days after injury.
The evaluations were made by two blind observers for all analyzed groups.
Briefly, the BMS is a nine-point scale that pro vides a gross indication of locomotor ability and determines the phases of locomotor recovery and features of locomotion. The BMS score was determined for ten mice in each group. Spinal cord tissues were taken at 24 hours after trauma. Tissue was used for histological grading of the damage or for immunocytochemistry with inflammation, cell death or autophagy markers.
As previously described, the spinal cord of male adult CD1 mice was injured by the clip compression technique, compound of formula (I) was administered and the motor function was assessed.

[2] = system: DNBS-induced colitis in BALB/c mice; experiment: Experimental colitis induced by DNBS; assay type: in vivo; conditions: i.p.; for MPO in the colon / NAMPT in the colon / TNFalpha in the colon / VEGF in the colon: DNBS-treated mice, between 20 mg/Kg and 500 mg/Kg, compared to untreated colitis mice; for protection from DNBS-induced colitis as assessed by the macroscopic damage score: doses of between 20 mg/Kg and 500 mg/Kg
Experimental: Animal work was authorized by the local ethical committee for animal studies (Università del Piemonte Orientale). BALB/c mice (Harlan Nossan, Milan, Italy) were anesthetized by enflurane. Dinitrobenzene sulfonic acid (DNBS; 4 mg in 100 μl of 50% ethanol) was injected into the rectum through a catheter inserted 4.5 cm proximally to the anus. Carrier alone (100 μl of 50% ethanol) was administered in control experiments. Thereafter, the animals were kept for 15 minutes in a Trendelenburg position to avoid reflux. Treatment with either solvent alone or drugs was done immediately after induction and thereafter twice a day. […] On Day 4, the animals were weighed and anaesthetized with chloral hydrate, and the abdomen was opened by a midline incision. The colon was removed, freed from surrounding tissues, opened along the antimesenteric border, rinsed, weighed, and processed for histology, biochemical measurements and immunohistochemistry. Colon damage (macroscopic damage score) was evaluated and scored by two independent observers according to the following criteria: 0, no damage; 1, localized hyperemia without ulcers; 2, linear ulcers with no significant inflammation; 3, linear ulcers with inflammation at one site; 4, two or more major sites of inflammation and ulceration extending >1 cm along the length of the colon; and 5-8, one point is added for each centimeter of ulceration beyond an initial 2 cm. Biochemical and histological analysis also included TNFalpha measurements and myeloperoxidase (MPO) measurements by ELISA assay, and VEGF, NAMPT, COX-2 measurements by immunoblotting. (Esposito E, Mazzon E, Paterniti I, Dal Toso R, Pressi G, Caminiti R, Cuzzocrea S. PPAR-alpha Contributes to the Anti-Inflammatory Activity of Verbascoside in a Model of Inflammatory Bowel Disease in Mice. PPAR Res. 2010; 2010:917312).
As previously described, the colon of DNBS- or dextran treated animals was removed after the induction of colitis. Compounds of formula (I) were administered intraperitoneally (i.p.).

Row | IC50 (SH-SY5Y, HeLa) [µM] | Structure (SMILES) | motor recovery [1] | protection from injury [1] | MPO in the colon [2] | NAMPT in the colon [2] | TNFalpha in the colon [2] | VEGF in the colon [2] | protection from DNBS-induced colitis as assessed by the macroscopic damage score [2]
1 | < 0.3 | c1ccc(-c2ccccc2OCCCCCCn2cc(-c3cccnc3)nn2)cc1 [3-(1-(6-([1,1′-biphenyl]-2-yloxy)hexyl)-1H-1,2,3-triazol-4-yl)pyridine] | partial motor recovery | partially protect from injury | able to reduce | able to reduce | able to reduce | able to reduce | able to protect
2 | < 0.3 | O=C(NCCCCCCCn1cc(-c2cccnc2)nn1)c1ccccc1-c1ccccc1 [N-(7-(4-(pyridin-3-yl)-1H-1,2,3-triazol-1-yl)heptyl)-[1,1′-biphenyl]-2-carboxamide] | partial motor recovery | partially protect from injury | able to reduce | able to reduce | able to reduce | able to reduce | able to protect
